≈ marks a conversion by molar mass, not a printed value. Like-named read-outs stand apart in the source and are kept apart here.
Test system: 100 A. baumannii strains (50 MDR, 50 non-MDR)
Assay: MIC broth microdilution at IHMA Europe, panel of 100 strains
Type: cell-based
Conditions: Acinetobacter baumannii, read-out: MIC

Structure (SMILES): C[C@@H](O)[C@H]1C(=O)N2C(C(=O)O)=C(S[C@@H]3CN[C@H](C(=O)N(C)C)C3)[C@H](C)[C@H]12 [Meropenem, meropenem]
- MIC (A. baumannii IHMA 1769393, Lithuania 2018, Non-MDR): 0.25 µg/mL (≈ 0.652 µM)
- MIC (A. baumannii IHMA 1769782, Israel 2018, MDR): > 16 µg/mL
- MIC (A. baumannii IHMA 1769910, Israel 2018, Non-MDR): 0.25 µg/mL (≈ 0.652 µM)
- MIC (A. baumannii IHMA 1790317, Czech Republic 2018, Non-MDR): 0.12 µg/mL (≈ 0.313 µM)
- MIC (A. baumannii IHMA 1790916, Romania 2018, Non-MDR): ≤ 0.06 µg/mL
- MIC (A. baumannii IHMA 1791877, Israel 2018, MDR): > 16 µg/mL
- MIC (A. baumannii IHMA 1792961, Jordan 2018, MDR): > 16 µg/mL
- MIC (A. baumannii IHMA 1795669, Tunisia 2018, Non-MDR): 0.25 µg/mL (≈ 0.652 µM)
- MIC (A. baumannii IHMA 1814276, Lebanon 2018, MDR): > 16 µg/mL
- MIC (A. baumannii IHMA 1815198, Kuwait 2018, MDR): > 16 µg/mL
- MIC (A. baumannii IHMA 1815856, Israel 2018, MDR): > 16 µg/mL
- MIC (A. baumannii IHMA 1821468, South Africa 2018, Non-MDR): 0.25 µg/mL (≈ 0.652 µM)
- MIC (A. baumannii IHMA 1829500, Georgia 2018, Non-MDR): 0.12 µg/mL (≈ 0.313 µM)
- MIC (A. baumannii IHMA 1830924, United Kingdom 2018, Non-MDR): 0.5 µg/mL (≈ 1.3 µM)
- MIC (A. baumannii IHMA 1849819, Kuwait 2018, MDR): > 16 µg/mL
- MIC (A. baumannii IHMA 1849829, Kuwait 2018, Non-MDR): 0.12 µg/mL (≈ 0.313 µM)
- MIC (A. baumannii IHMA 1857118, Slovenia 2018, Non-MDR): 0.25 µg/mL (≈ 0.652 µM)
- MIC (A. baumannii IHMA 1863631, France 2018, Non-MDR): 0.12 µg/mL (≈ 0.313 µM)
- MIC (A. baumannii IHMA 1870054, United States 2018, Non-MDR): 0.25 µg/mL (≈ 0.652 µM)
- MIC (A. baumannii IHMA 1884428, Italy 2018, Non-MDR): 0.12 µg/mL (≈ 0.313 µM)
- MIC (A. baumannii IHMA 1884990, Germany 2018, Non-MDR): 0.25 µg/mL (≈ 0.652 µM)
- MIC (A. baumannii IHMA 1900538, Turkey 2018, Non-MDR): 0.12 µg/mL (≈ 0.313 µM)
- MIC (A. baumannii IHMA 1913773, Kenya 2018, Non-MDR): 0.25 µg/mL (≈ 0.652 µM)
- MIC (A. baumannii IHMA 1926285, Qatar 2018, Non-MDR): ≤ 0.06 µg/mL
- MIC (A. baumannii IHMA 1926288, Qatar 2018, MDR): > 16 µg/mL
- MIC (A. baumannii IHMA 1957343, Portugal 2019, Non-MDR): 0.25 µg/mL (≈ 0.652 µM)
- MIC (A. baumannii IHMA 1963732, Turkey 2019, MDR): > 16 µg/mL
- MIC (A. baumannii IHMA 1967860, Spain 2019, Non-MDR): 0.25 µg/mL (≈ 0.652 µM)
- MIC (A. baumannii IHMA 1971673, Latvia 2019, MDR): > 16 µg/mL
- MIC (A. baumannii IHMA 1975075, Israel 2019, Non-MDR): 0.25 µg/mL (≈ 0.652 µM)
- MIC (A. baumannii IHMA 1977077, Kuwait 2019, Non-MDR): 0.5 µg/mL (≈ 1.3 µM)
- MIC (A. baumannii IHMA 1983151, Greece 2019, MDR): > 16 µg/mL
- MIC (A. baumannii IHMA 1984665, Lithuania 2019, MDR): > 16 µg/mL
- MIC (A. baumannii IHMA 1986678, Turkey 2019, Non-MDR): 0.25 µg/mL (≈ 0.652 µM)
- MIC (A. baumannii IHMA 1986738, Turkey 2019, MDR): > 16 µg/mL
- MIC (A. baumannii IHMA 1987162, Croatia 2019, MDR): > 16 µg/mL
- MIC (A. baumannii IHMA 1993615, Turkey 2019, MDR): > 16 µg/mL
- MIC (A. baumannii IHMA 1994284, Italy 2019, MDR): > 16 µg/mL
- MIC (A. baumannii IHMA 1995161, Czech Republic 2019, Non-MDR): 0.25 µg/mL (≈ 0.652 µM)
- MIC (A. baumannii IHMA 1997936, Morocco 2019, Non-MDR): 0.12 µg/mL (≈ 0.313 µM)
- MIC (A. baumannii IHMA 1999178, Belgium 2019, Non-MDR): 0.25 µg/mL (≈ 0.652 µM)
- MIC (A. baumannii IHMA 2003279, Turkey 2019, MDR): > 16 µg/mL
- MIC (A. baumannii IHMA 2014367, Jordan 2019, Non-MDR): 0.25 µg/mL (≈ 0.652 µM)
- MIC (A. baumannii IHMA 2014931, South Africa 2019, Non-MDR): 1 µg/mL (≈ 2.61 µM)
- MIC (A. baumannii IHMA 2019315, Romania 2019, Non-MDR): 0.12 µg/mL (≈ 0.313 µM)
- MIC (A. baumannii IHMA 2020360, Croatia 2019, MDR): > 16 µg/mL
- MIC (A. baumannii IHMA 2031511, Greece 2019, Non-MDR): 0.12 µg/mL (≈ 0.313 µM)
- MIC (A. baumannii IHMA 2031524, Greece 2019, MDR): > 16 µg/mL
- MIC (A. baumannii IHMA 2034657, Tunisia 2019, Non-MDR): 0.25 µg/mL (≈ 0.652 µM)
- MIC (A. baumannii IHMA 2035089, Serbia 2019, MDR): > 16 µg/mL
- MIC (A. baumannii IHMA 2035134, Serbia 2019, Non-MDR): 0.25 µg/mL (≈ 0.652 µM)
- MIC (A. baumannii IHMA 2038976, Hungary 2019, MDR): > 16 µg/mL
- MIC (A. baumannii IHMA 2051503, Serbia 2019, MDR): > 16 µg/mL
- MIC (A. baumannii IHMA 2058329, Slovenia 2019, Non-MDR): 0.12 µg/mL (≈ 0.313 µM)
- MIC (A. baumannii IHMA 2065587, France 2019, Non-MDR): 0.12 µg/mL (≈ 0.313 µM)
- MIC (A. baumannii IHMA 2099294, United Kingdom 2019, Non-MDR): 0.25 µg/mL (≈ 0.652 µM)
- MIC (A. baumannii IHMA 2129256, Qatar 2019, Non-MDR): 0.12 µg/mL (≈ 0.313 µM)
- MIC (A. baumannii IHMA 2154584, Israel 2020, MDR): 16 µg/mL (≈ 41.7 µM)
- MIC (A. baumannii IHMA 2155340, Kenya 2020, MDR): 16 µg/mL (≈ 41.7 µM)
- MIC (A. baumannii IHMA 2156634, Turkey 2020, MDR): > 16 µg/mL
- MIC (A. baumannii IHMA 2156709, Turkey 2020, MDR): > 16 µg/mL

— PMC10041525, “New Dual Inhibitors of Bacterial Topoisomerases with Broad-Spectrum Antibacterial Activity and In Vivo Efficacy against Vancomycin-Intermediate Staphylococcus aureus” (Journal of Medicinal Chemistry, 2023)
